Measured values reported in patent publication US11141413B2, “Method of treating renal cell carcinoma using N-(4-(6,7-dimethoxyquinolin-4-yloxy)phenyl)-N′-(4-fluorophenyl)cyclopropane-1,1-dicarboxamide, (2S)-hydroxybutanedioate” (Exelixis, Inc., priority 2016, dated 2021).

Test system: patients with advanced renal cell carcinoma
Settings: human, in vivo
Experimental: Treatment modifications, including interruptions and dose reductions, were allowed to manage adverse events. […] Patients were allowed to continue study treatment beyond radiographic progression at the discretion of the investigator. On-study crossover between treatment groups was not permitted. Safety evaluations, including physical examination, vital signs, and laboratory assessments, were conducted every 2 weeks for the first 8 weeks and then every 4 weeks thereafter. ECG assessments were performed every 4 weeks for the first 8 weeks and then every 12 weeks. A safety follow-up visit was scheduled 30 days after treatment discontinuation. Adverse events were assessed by investigators and graded according to CTCAE version 4.0.
Safety analyses were limited to patients who received any amount of study treatment.

SMILES: CO[C@H]1C[C@@H]2CC[C@@H](C)[C@@](O)(O2)C(=O)C(=O)N2CCCC[C@H]2C(=O)O[C@H]([C@H](C)C[C@@H]2CC[C@@H](OCCO)[C@H](OC)C2)CC(=O)[C@H](C)/C=C(\C)[C@@H](O)[C@@H](OC)C(=O)[C@H](C)C[C@H](C)/C=C/C=C/C=C/1C [everolimus]
- ALP increased, All Grades: 29%
- ALP increased, Grade 3-4: 1%
- ALT increased, All Grades: 32%
- ALT increased, Grade 3-4: <1%
- AST increased, All Grades: 40%
- AST increased, Grade 3-4: <1%
- Abdominal pain, All Grades: 13%
- Abdominal pain, Grade 1-2: 27 (8) n (%)
- Abdominal pain, Grade 3: 5 (2) n (%)
- Abdominal pain, Grade 3-4: 2%
- Abdominal pain, Grade 4: 0 n (%)
- Absolute neutrophil count decreased, All Grades: 17%
- Absolute neutrophil count decreased, Grade 3-4: <1%
- Adverse reactions led to study treatment being held: 59%
- Adverse reactions led to study treatment discontinuation: 10%
- Alanine aminotransferase increased, Grade 1-2: 20 (6) n (%)
- Alanine aminotransferase increased, Grade 3: 1 (<1) n (%)
- Alanine aminotransferase increased, Grade 4: 0 n (%)
- Anemia, All Grades: 38%
- Anemia, Grade 1-2: 73 (23) n (%)
- Anemia, Grade 3: 53 (17) n (%)
- Anemia, Grade 3-4: 16%
- Anemia, Grade 4: 0 n (%)
- Anemia, all grades: 126 (39%) n (%)
- Anemia, grade 3 or 4: 53 [17%] n [%]
- Any AE, Grade 1-2: 103 (32) n (%)
- Any AE, Grade 3: 167 (52) n (%)
- Any AE, Grade 4: 26 (8) n (%)
- Arthralgia, All Grades: 14%
- Arthralgia, Grade 1-2: 46 (14) n (%)
- Arthralgia, Grade 3: 4 (1) n (%)
- Arthralgia, Grade 3-4: 1%
- Arthralgia, Grade 4: 0 n (%)
- Aspartate aminotransferase increased, Grade 1-2: 19 (6) n (%)
- Aspartate aminotransferase increased, Grade 3: 1 (<1) n (%)
- Aspartate aminotransferase increased, Grade 4: 0 n (%)
- Asthenia, All Grades: 16%
- Asthenia, Grade 1-2: 46 (14) n (%)
- Asthenia, Grade 3: 8 (3) n (%)
- Asthenia, Grade 3-4: 2%
- Asthenia, Grade 4: 0 n (%)
- Back pain, Grade 1-2: 41 (13) n (%)
- Back pain, Grade 3: 7 (2) n (%)
- Back pain, Grade 4: 0 n (%)
- Blood creatinine increased, Grade 1-2: 39 (12) n (%)
- Blood creatinine increased, Grade 3: 0 n (%)
- Blood creatinine increased, Grade 4: 0 n (%)
- Constipation, All Grades: 19%
- Constipation, Grade 1-2: 64 (20) n (%)
- Constipation, Grade 3: 1 (<1) n (%)
- Constipation, Grade 3-4: <1%
- Constipation, Grade 4: 0 n (%)
- Cough, All Grades: 33%
- Cough, Grade 1-2: 107 (33) n (%)
- Cough, Grade 3: 3 (<1) n (%)
- Cough, Grade 3-4: <1%
- Cough, Grade 4: 0 n (%)
- Creatinine increased, All Grades: 71%
- Creatinine increased, Grade 3-4: 0%
- Decreased appetite, All Grades: 34%
- Decreased appetite, Grade 1-2: 111 (35) n (%)
- Decreased appetite, Grade 3: 3 (<1) n (%)
- Decreased appetite, Grade 3-4: <1%
- Decreased appetite, Grade 4: 0 n (%)
- Decreased appetite, all grades: 114 (3-5%) n (%)
- Diarrhea, All Grades: 28%
- Diarrhea, Grade 1-2: 85 (26) n (%)
- Diarrhea, Grade 3: 7 (2) n (%)
- Diarrhea, Grade 3-4: 2%
- Diarrhea, Grade 4: 0 n (%)
- Discontinuation due to a primary reason of AE (excluding disease progression): 10%
- Dizziness, All Grades: 7%
- Dizziness, Grade 1-2: 21 (7) n (%)
- Dizziness, Grade 3: 0 n (%)
- Dizziness, Grade 3-4: 0%
- Dizziness, Grade 4: 0 n (%)
- Dry skin, All Grades: 10%
- Dry skin, Grade 1-2: 35 (11) n (%)
- Dry skin, Grade 3: 0 n (%)
- Dry skin, Grade 3-4: 0%
- Dry skin, Grade 4: 0 n (%)
- Dysgeusia, All Grades: 9%
- Dysgeusia, Grade 1-2: 30 (9) n (%)
- Dysgeusia, Grade 3: 0 n (%)
- Dysgeusia, Grade 3-4: 0%
- Dysgeusia, Grade 4: 0 n (%)
- Dyspepsia, All Grades: 5%
- Dyspepsia, Grade 1-2: 15 (5) n (%)
- Dyspepsia, Grade 3: 0 n (%)
- Dyspepsia, Grade 3-4: 0%
- Dyspepsia, Grade 4: 0 n (%)
- Dysphonia, All Grades: 4%
- Dysphonia, Grade 1-2: 16 (5) n (%)
- Dysphonia, Grade 3: 0 n (%)
- Dysphonia, Grade 3-4: 0%
- Dysphonia, Grade 4: 0 n (%)
- Dyspnea, All Grades: 29%
- Dyspnea, Grade 3-4: 4%
- Dyspnoea, Grade 1-2: 82 (26) n (%)
- Dyspnoea, Grade 3: 11 (3) n (%)
- Dyspnoea, Grade 4: 3 (<1) n (%)
- Edema peripheral, Grade 1-2: 70 (22) n (%)
- Edema peripheral, Grade 3: 6 (2) n (%)
- Edema peripheral, Grade 4: 0 n (%)
- Epistaxis, Grade 1-2: 46 (14) n (%)
- Epistaxis, Grade 3: 0 n (%)
- Epistaxis, Grade 4: 0 n (%)
- Events of arterial thromboembolism: 0.3%
- Fatigue, All Grades: 47%
- Fatigue, Grade 1-2: 130 (40) n (%)
- Fatigue, Grade 3: 24 (8) n (%)
- Fatigue, Grade 3-4: 7%
- Fatigue, Grade 4: 0 n (%)
- Fatigue, all grades: 154 (48%) n (%)
- Fatigue, grade 3 or 4: 24 [7%] n [%]
- Fistulas: 0%
- Flatulence, Grade 1-2: 7 (2) n (%)
- Flatulence, Grade 3: 0 n (%)
- Flatulence, Grade 4: 0 n (%)
- GGT increased, All Grades: 43%
- GGT increased, Grade 3-4: 9%
- Gastrointestinal (GI) perforations: 0.6%
